Series [1] in a line: Interconversion rates of 2′- and 3′-AADPR (HPLC, NMR). In kind it is physicochemical. The protocol: Interconversion rates of 2′- and 3′-AADPR. Sample of both 2′- and 3′-AADPR were incubated at 15° C. and analyzed by HPLC at 40 min intervals (C-18 column; 50 mM ammonium acetate pH 5.0). The percent of the 3′-isomer at a given time was fit to the equation 3′-AADPR (%)=Pa exp (−kt)+Pf where Pa+Pf=P0; where Pa is the percent of the 3′-isomer above equilibrium at time=0, t is time and k is the first order rate constant for the conversion. Pf is the percent at equilibrium and P0 is the initial percent. HPLC and NMR analysis established the 2′- and 3′-isomers concentration as a function of time. NMR was in 10% d4-methanol/90% D2O at 0° C. or in 100% D2O at 20° C.

In series [2] the target is T1, Sir2Af2 (Archaeoglobus fulgidus, UniProt O30124).
T1 construct: made in house
T1 sequence (O30124 1-253): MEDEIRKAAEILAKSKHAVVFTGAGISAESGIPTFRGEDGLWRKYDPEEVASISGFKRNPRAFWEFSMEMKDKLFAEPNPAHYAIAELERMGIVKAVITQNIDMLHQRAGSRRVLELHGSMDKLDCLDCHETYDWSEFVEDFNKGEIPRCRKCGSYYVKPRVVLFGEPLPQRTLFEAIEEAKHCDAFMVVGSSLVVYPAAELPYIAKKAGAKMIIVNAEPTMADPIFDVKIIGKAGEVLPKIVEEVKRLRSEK
In words: Low temperature ^1H NMR analysis of Sir2p reaction products (order of product formation). The note with it: 5° C. Type of series: biochemical. The protocol:
Low temperature studies of Sir2Af2 to identify order of product production. Sir2Af2 catalyzed deacetylation reactions were performed at 8° C. to determine the order of product formation. A 200 μL solution containing 150 μM NAD^+, 300 μM peptide JB12, in 40 mM potassium phosphate pH 6.2 were cooled to 8° C. and then 1 μL of 9 μg/μL of Sir2Af2 was added to initiate the reaction. Reactions were assayed by HPLC using 0.5% TFA as an eluant. Peals at 17 and 20 min were used to quantitate 3′- and 2′-AADPR at 30 minute intervals.
Low temperature ^1H NMR analysis of Sir2p reaction products. A solution of 1.7 mg Sir2Af2 enzyme in 95% D2O, 50 mM potassium phosphate pH 6.3 was concentrated to 550 μL using centrifugation filtration. This sample was mixed with 2 mg JB12 peptide and cooled to 5° C. in a 600 MHz NMR spectrometer. Spectra were obtained and 280 μL of ice-chilled 22 mM NAD^+ solution in 50 mM potassium phosphate pH 6.3 in 99% D2O was added to initiate the reaction. ^1H NMR 1D spectra were obtained at intervals over 18 hr at 5° C.

For series [3], the system named is ADP-ribosyltransfer enzymes. The settings on record: cited from earlier work.
The conditions of series [4]: cited from earlier work.
Series [5] has as its target T1, Sir2Af2. In words: Inhibition of Sir2Af2 catalytic turnover by ara-F-NAD^+ (HPLC). Type of series: biochemical. The note with it: Sir2Af2 7 μM, ara-F-NAD^+ 20 μM, 300 μM JB12, 6 h then 150 μM NAD^+. The protocol: (§1) Ara-F-NAD^+ as an NAD^+ analogue. Ara-F NAD^+ is an inhibitor of ADP-ribosyl-transferase and was used to evaluate Sir2Af2. Ara-F-NAD^+ was synthesized as previously reported^44. Deacetylation of peptide JB12 (300 μM) by Sir2Af2 (10 μg) in the presence of ara-F-NAD^+ (50 μM) was tested in 200 μL of 40 mM potassium phosphate pH 6.25. No change of ara-F-NAD^+ was detected by C-18 reverse phase HPLC. […] A control run with […] and NAD^+ established [Carbonyl-^14C]-nicotinamide exchange into NAD^+, confirming the Sir2 base-exchange reaction. […] Inhibition of Sir2Af2 by ara-F-NAD^+ was evaluated by incubation of Sir2Af2 enzyme (7 μM) and ara-F-NAD^+ (20 μM) in the presence of 300 μM JB12 peptide in potassium phosphate pH 6.25 buffer. A reaction mixture lacking ara-F NAD^+ was the control. A positive control used the same reaction components but 500 nM CD38 in the presence of 5 μM ara-F-NAD^+. Reactions were initiated after 6 h by adding 150 μM NAD^+. Reactions were evaluated for catalytic turnover using HPLC. Catalytic turnover of Sir2Af2 was not inhibited by ara-F-NAD^+ under these reaction conditions.

The target of series [6] is T1, Sir2Af2. In words: Ara-F-NAD^+ as NAD^+ analogue: substrate and nicotinamide exchange reactions with Sir2Af2. Type of series: biochemical. The note with it: for [Carbonyl-^14C]-nicotinamide exchange catalysed by Sir2Af2: 5 mM nicotinamide, 300 μM peptide; for Substrate in Sir2Af2 deacetylation of peptide JB12: ara-F-NAD^+ 50 μM, JB12 300 μM, pH 6.25, C-18 HPLC. On the procedure: as §1

Another series relates to CD38. In words: CD38 controls with ara-F-NAD^+ (base exchange, inhibition). Type of series: biochemical, human. On the procedure:
as §1

The next series deals with Sir2. The note with it: cited from earlier work.
The nature of series [7]: Stability of authentic β-1′-AADPR (elimination as a Sir2p product). In kind it is physicochemical. The note with it: 100 μM, 40 mM phosphate buffer pH 6.25, one hr at 55° C., HPLC. The source says: Elimination of β-1′-AADPR as a Sir2p product.
Series [8] concerns esterase activity. In words: Breakdown of AADPR by esterase activity in hamster ovary cell extract. Type of series: in vitro ADME. The settings on record: hamster ovary cells extract. The source says:
(§2) The use of AADPR or radiolabeled AADPR is a strategy to characterize and discover the esterases (or other enzymes) that break down or utilize AADPR in vivo. Specifically, AADPR breakdown can be measured by HPLC or TLC assay. When radiolabels are used, amounts of AADPR necessary for this purpose can be as small as 250 pmoles.

Series [9] relates to esterase activity. Put plainly: Breakdown of AADPR by esterase activity in rat liver extract. In kind it is in vitro ADME.
Text: as §2

The next series concerns the target T2, Sir2Af1 (Archaeoglobus fulgidus, UniProt O28597).
T2 construct: made in house
T2 sequence (O28597 1-245): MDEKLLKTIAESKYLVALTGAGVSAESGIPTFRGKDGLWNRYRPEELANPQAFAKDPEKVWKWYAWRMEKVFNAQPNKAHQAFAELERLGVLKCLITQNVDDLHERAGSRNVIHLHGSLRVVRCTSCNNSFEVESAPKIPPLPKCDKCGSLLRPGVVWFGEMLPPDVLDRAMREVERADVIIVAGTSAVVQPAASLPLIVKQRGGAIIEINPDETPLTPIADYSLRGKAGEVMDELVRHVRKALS
The note with it: cited from earlier work.

The test system of the next series is AfSir2. In words: Inhibition of AfSir2 by ADPR. Type of series: biochemical, Archaeoglobus fulgidus.

Data on 8 molecules can be found in US7741295B2, “Sir2 products and activities” (Albert Einstein College of Medicine of Yeshiva University, priority 2001, dated 2010).

Some results are limits rather than exact numbers.

With `CC(=O)O[C@H]1C(O)O[C@H](COP(=O)(O)OP(=O)(O)OC[C@H]2O[C@@H](n3cnc4c(N)ncnc43)[C@H](O)[C@@H]2O)[C@H]1O` (stereo partly drawn) [2′-AADPR, 2′-O-acetyl-ADP-ribose], the “rate of chemical exchange of the acetyl group” value in series [1] (15° C.) came to 0.45 h⁻¹. In addition, the “α/β anomeric equilibrium rate” value in [1] (NMR) was greater than 50 s⁻¹. Besides, the “calculated value for k3′ to 2′” value in series [1] (calculated from K and the measured rate constant, 15° C.) was 0.45 h⁻¹. Moreover, the “time to establish 2′/3′ equilibrium” value in series [1] (physiological temperatures of 37° C.) is no more than 60 min. The “ratio kcat/k2′-3′” value at Sir2Af2 [2] amounted to 20.

For the molecule `CC(=O)O[C@@H]1[C@@H](COP(=O)(O)OP(=O)(O)OC[C@H]2O[C@@H](n3cnc4c(N)ncnc43)[C@H](O)[C@@H]2O)OC(O)[C@@H]1O` (stereo partly drawn) [3′-AADPR, 3′-O-acetyl-ADP-ribose], in series [1] (15° C.), the “rate of chemical exchange of the acetyl group” value was determined as 0.32 h⁻¹. Moreover, in series [1] (15° C., HPLC peak integrations of the 2′- and 3′-isomers), the “equilibrium constant K” value stood at 1.4. Further, in series [1] (fit to exponential decay curve, 15° C.), the “first-order rate constant for acetyl migration k3′ to 2′” value was determined as 0.32 h⁻¹.

Turning to `NC(=O)c1ccc[n+]([C@@H]2O[C@H](COP(=O)([O-])OP(=O)(O)OC[C@H]3O[C@@H](n4cnc5c(N)ncnc54)[C@H](O)[C@@H]3O)[C@@H](O)[C@H]2F)c1` [ara-F-NAD^+], in [3], the “Inhibitor of ADP-ribosyltransfer enzymes” value is “powerful inhibitor”. The “Stability relative to NAD^+” value in series [4] was “roughly 50 times”. Besides, the “Inhibition of Sir2Af2 catalytic turnover” value on Sir2Af2 [5] is “not inhibited”; on Sir2Af2 [5] (listed as Ara-F-NAD^+) it was “did not inactivate”. In addition, the “[Carbonyl-^14C]-nicotinamide exchange catalysed by Sir2Af2” value was “no radioactivity incorporated” on Sir2Af2 [6] and “did not serve as a substrate” on Sir2Af2 [6] (listed as Ara-F NAD^+). Further, the figures for the “Substrate in Sir2Af2 deacetylation of peptide JB12” value on Sir2Af2 [6] and at Sir2Af2 [6] (listed as Ara-F NAD^+) were “No change” and “did not serve as a substrate”, respectively. Moreover, the “Activity (inactivation) on CD38 positive control” value in the series with CD38 (500 nM CD38, 5 μM ara-F-NAD^+) is “activity on the control using CD38”. Besides, the “Base exchange with [^14C]nicotinamide catalysed by CD38” value in the series on CD38 (control) is “full base exchange”.

For `NC(=O)c1cccnc1` [nicotinamide], in the series with Sir2, the “Inhibition of Sir2” value is “inhibits the enzyme”.

Turning to `CC(=O)O[C@@H]1O[C@H](COP(=O)(O)OP(=O)(O)OC[C@H]2O[C@@H](n3cnc4c(N)ncnc43)[C@H](O)[C@@H]2O)[C@@H](O)[C@H]1O` [β-1′-AADPR], the “Change of β-1′-AADPR and production of 2′- or 3′-AADPR on incubation” value in series [7] is on record as “no change”.

For the molecule “acetyl adenosine diphosphate ribose [AADPR]”, the “Breakdown of AADPR to ADPR and acetate” value with esterase activity [8] and with esterase activity [9] was “high esterase activity exists that can breakdown AADPR” in each case.

“acetylated BSA: acetylated BSA, a non physiologic substrate”: in the series with Sir2Af1, the “Substrate of Sir2Af1 as reported in the literature” value is given as “is a substrate”.

As to adenosine diphosphate ribose [ADPR], in the series with AfSir2, the “Inhibition of AfSir2” value was “potent inhibitor”.
